# From patent US12378248B2 (The United States of America, as represented by the …, priority 2018, dated 2025)
# What was measured:
# mA3AR [1] = biological target: T1, mA3AR (Mus musculus, UniProt Q61618); assay: Guanine nucleotide ([35S]GTPγS) binding assay; format: biochemical; conditions: effect of 10 μM test compound as % of 10 μM 16
# T1 sequence (Q61618 1-319): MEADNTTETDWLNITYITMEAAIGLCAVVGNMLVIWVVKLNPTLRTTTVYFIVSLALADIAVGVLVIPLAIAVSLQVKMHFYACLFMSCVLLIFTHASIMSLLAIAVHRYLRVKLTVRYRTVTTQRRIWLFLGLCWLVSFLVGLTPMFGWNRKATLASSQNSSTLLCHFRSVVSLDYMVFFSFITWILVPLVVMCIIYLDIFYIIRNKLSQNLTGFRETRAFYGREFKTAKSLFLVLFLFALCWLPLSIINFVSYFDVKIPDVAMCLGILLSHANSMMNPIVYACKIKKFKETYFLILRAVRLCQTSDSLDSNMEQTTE
# Method: (§1) cLogP was calculated using ChemDraw Professional, v. 16.0. Binding selectivity for mA1Ar is expressed in terms of fold, compared to mA3AR (Data from Table 1).
# mA1AR [2] = biological target: T2, mA1AR (Mus musculus, UniProt Q60612); assay: Guanine nucleotide ([35S]GTPγS) binding assay; format: biochemical
# T2 sequence (Q60612 1-326): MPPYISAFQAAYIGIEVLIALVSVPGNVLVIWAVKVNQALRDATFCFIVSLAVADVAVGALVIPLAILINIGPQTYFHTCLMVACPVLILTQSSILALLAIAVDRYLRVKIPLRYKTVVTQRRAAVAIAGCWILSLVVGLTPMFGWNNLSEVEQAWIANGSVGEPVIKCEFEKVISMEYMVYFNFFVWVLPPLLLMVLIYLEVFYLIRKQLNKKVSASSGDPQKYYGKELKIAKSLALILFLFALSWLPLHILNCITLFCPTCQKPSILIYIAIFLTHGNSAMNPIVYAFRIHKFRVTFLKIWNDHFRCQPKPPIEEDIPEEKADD
# Method: as §1
# hA2AAR = biological target: T3, hA2AAR (Homo sapiens, UniProt P29274); assay: Radioligand binding in membranes of HEK293 cells expressing hA2AAR; conditions: read-out: A2AAR % inhibition
# T3 construct: expressed in transfected cells; host or cells: HEK293
# hA1AR = biological target: T4, hA1AR (Homo sapiens, UniProt P30542); assay: Radioligand binding in membranes of CHO cells expressing hA1AR, [3H]N6-R-phenylisopropyladenosine; conditions: (h); Ki; read-out: A1AR % inhibition or Ki
# T4 construct: expressed in transfected cells; host or cells: CHO
# T4 sequence (P30542 1-326): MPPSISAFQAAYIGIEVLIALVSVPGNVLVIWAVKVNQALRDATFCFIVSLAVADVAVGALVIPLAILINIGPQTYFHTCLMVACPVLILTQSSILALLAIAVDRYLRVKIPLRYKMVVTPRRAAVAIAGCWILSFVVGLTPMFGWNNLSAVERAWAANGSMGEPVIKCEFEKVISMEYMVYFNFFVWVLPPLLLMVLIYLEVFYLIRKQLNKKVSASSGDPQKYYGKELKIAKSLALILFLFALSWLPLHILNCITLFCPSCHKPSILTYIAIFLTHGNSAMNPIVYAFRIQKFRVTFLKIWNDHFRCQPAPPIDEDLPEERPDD
# serotonin receptor 5HT2C = biological target: T5, serotonin receptor 5HT2C (Homo sapiens, UniProt P28335); assay: Off-target interaction determined by the PDSP; format: binding; conditions: read-out: Off-target, receptor (h, unless noted) (Ki, μM): 5HT2C
# T5 sequence (P28335 33-458): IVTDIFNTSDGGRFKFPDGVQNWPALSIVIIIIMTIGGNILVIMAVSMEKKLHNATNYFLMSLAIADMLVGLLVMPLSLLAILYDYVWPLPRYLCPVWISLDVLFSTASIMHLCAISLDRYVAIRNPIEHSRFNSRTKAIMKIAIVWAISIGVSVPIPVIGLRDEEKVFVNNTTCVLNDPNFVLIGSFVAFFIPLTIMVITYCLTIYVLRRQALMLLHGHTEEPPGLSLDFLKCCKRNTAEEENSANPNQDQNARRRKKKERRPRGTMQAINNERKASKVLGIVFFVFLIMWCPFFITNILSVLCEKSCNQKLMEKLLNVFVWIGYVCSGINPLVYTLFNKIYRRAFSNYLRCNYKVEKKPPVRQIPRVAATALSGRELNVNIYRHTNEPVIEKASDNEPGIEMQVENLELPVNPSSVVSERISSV
# [3] = biological target: rat brain benzodiazepine receptors (BZP); assay: Off-target interaction determined by the PDSP; format: binding; conditions: read-out: Off-target, receptor (h, unless noted) (Ki, μM): BZP (r)
# wild-type C57BL/6J mice [4] = assay: Locomotor activity by telemetry after ip dosing; format: in vivo, mouse; conditions: average from dosing to 60 min, mean±SD
# Method: (§2) Compounds were dosed ip. Tb and activity were measured by telemetry and the averages from dosing to 60 min were calculated. […] Data are for the highest dose used and are mean±SD from 3 to 22 mice/group (usually 5-7). P values are unpaired t-Test vs vehicle-treated controls assayed simultaneously. Vehicle data are mean±SD from all (n=83) vehicle treated mice.
# [5] = Plasma protein binding at 10 μM; format: in vitro ADME, rat; conditions: unbound percent ± standard deviation
# Method: (§3) Plasma protein binding in human plasma, mouse plasma, and rat plasma was determined. Verapamil and warfarin served as positive controls. The results are expressed as unbound percent±standard deviation.
# serotonin receptor 5HT2B = serotonin receptor 5HT2B (Homo sapiens, UniProt P41595); assay: Off-target interaction determined by the PDSP; format: binding; conditions: read-out: Off-target, receptor (h, unless noted) (Ki, μM): 5HT2B
# mA3AR [6] = biological target: T1, mA3AR; assay: Adenosine receptor binding, mA3AR; conditions: (m); Ki; read-out: A3AR % inhibition or Ki (converted)
# sigma receptor σ2 = sigma receptor σ2 (UniProt Q5BJF2); assay: Off-target interaction determined by the PDSP; format: binding, human; conditions: read-out: Off-target, receptor (h, unless noted) (Ki, μM): σ2
# [7] = Plasma protein binding at 10 μM; format: in vitro ADME, mouse; conditions: unbound percent ± standard deviation
# Method: as §3
# sigma receptor σ1 = sigma receptor σ1 (Homo sapiens, UniProt Q99720); assay: Off-target interaction determined by the PDSP; format: binding; conditions: read-out: Off-target, receptor (h, unless noted) (Ki, μM): σ1
# [8] = Plasma protein binding at 10 μM; format: in vitro ADME, human; conditions: unbound percent ± standard deviation
# Method: as §3
# hA3AR = biological target: T6, hA3AR (Homo sapiens, UniProt P0DMS8); assay: Radioligand binding in membranes of CHO cells expressing hA3AR; conditions: read-out: A3AR % inhibition or Ki; for Ki: (h)
# T6 construct: expressed in transfected cells; host or cells: CHO
# T6 sequence (P0DMS8 1-318): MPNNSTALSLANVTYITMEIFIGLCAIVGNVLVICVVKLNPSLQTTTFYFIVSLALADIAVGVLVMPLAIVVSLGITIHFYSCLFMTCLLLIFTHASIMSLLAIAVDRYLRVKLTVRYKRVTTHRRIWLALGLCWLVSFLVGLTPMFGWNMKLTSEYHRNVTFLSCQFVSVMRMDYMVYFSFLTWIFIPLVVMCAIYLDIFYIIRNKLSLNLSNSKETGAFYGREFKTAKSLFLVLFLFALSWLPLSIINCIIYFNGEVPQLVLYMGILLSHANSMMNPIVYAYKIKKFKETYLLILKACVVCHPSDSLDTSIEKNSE
# wild-type C57BL/6J mice [9] = assay: Hypothermia (Tb by telemetry) after ip dosing; format: in vivo, mouse; conditions: average from dosing to 60 min, mean±SD
# Method: as §2
# mA1AR [10] = biological target: T2, mA1AR; assay: Adenosine receptor binding, mA1AR; conditions: for Ki: (m), read-out: A1AR % inhibition or Ki (converted)
# muscarinic receptor M5 = muscarinic receptor M5 (Homo sapiens, UniProt P08912); assay: Off-target interaction determined by the PDSP; format: binding; conditions: read-out: Off-target, receptor (h, unless noted) (Ki, μM): M5
# [11] = biological target: TSPO (translocator protein) (UniProt P30536); assay: Off-target interaction determined by the PDSP; format: binding, human; conditions: read-out: Off-target, receptor (h, unless noted) (Ki, μM): TSPO
# mA2AAR = mA2AAR (Mus musculus, UniProt Q60613); assay: Adenosine receptor binding, mA2AAR; conditions: read-out: A2AAR % inhibition (converted)
# [12] = biological target: dopamine transporter (DAT) (Homo sapiens, UniProt Q01959); assay: Off-target interaction determined by the PDSP; format: binding; conditions: read-out: Off-target, receptor (h, unless noted) (Ki, μM): DAT
# adrenergic receptor α2A = adrenergic receptor α2A (Homo sapiens, UniProt P08913); assay: Off-target interaction determined by the PDSP; format: binding; conditions: read-out: Off-target, receptor (h, unless noted) (Ki, μM): α2A
# histamine receptor H2 = histamine receptor H2 (Homo sapiens, UniProt P25021); assay: Off-target interaction determined by the PDSP; format: binding; conditions: read-out: Off-target, receptor (h, unless noted) (Ki, μM): H2
# muscarinic receptor M3 = muscarinic receptor M3 (Homo sapiens, UniProt P20309); assay: Off-target interaction determined by the PDSP; format: binding; conditions: read-out: Off-target, receptor (h, unless noted) (Ki, μM): M3
# Chain of muscarinic receptor M3 (P20309 whole entry): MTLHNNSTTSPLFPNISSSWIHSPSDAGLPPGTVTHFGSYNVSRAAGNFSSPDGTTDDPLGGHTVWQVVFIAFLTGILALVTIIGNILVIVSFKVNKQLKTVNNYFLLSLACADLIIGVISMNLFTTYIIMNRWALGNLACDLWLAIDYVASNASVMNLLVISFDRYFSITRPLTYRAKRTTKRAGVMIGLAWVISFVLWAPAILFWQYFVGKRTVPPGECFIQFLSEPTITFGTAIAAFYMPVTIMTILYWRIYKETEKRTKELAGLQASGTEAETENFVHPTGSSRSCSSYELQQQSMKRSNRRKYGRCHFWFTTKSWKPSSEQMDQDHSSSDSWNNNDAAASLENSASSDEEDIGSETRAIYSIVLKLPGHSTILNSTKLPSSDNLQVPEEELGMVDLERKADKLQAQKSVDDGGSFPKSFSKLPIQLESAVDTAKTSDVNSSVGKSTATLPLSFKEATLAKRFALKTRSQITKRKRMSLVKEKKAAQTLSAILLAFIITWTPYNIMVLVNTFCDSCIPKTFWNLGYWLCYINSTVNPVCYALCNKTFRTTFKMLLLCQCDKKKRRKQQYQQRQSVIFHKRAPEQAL
# Chain of serotonin receptor 5HT2B (P41595 whole entry): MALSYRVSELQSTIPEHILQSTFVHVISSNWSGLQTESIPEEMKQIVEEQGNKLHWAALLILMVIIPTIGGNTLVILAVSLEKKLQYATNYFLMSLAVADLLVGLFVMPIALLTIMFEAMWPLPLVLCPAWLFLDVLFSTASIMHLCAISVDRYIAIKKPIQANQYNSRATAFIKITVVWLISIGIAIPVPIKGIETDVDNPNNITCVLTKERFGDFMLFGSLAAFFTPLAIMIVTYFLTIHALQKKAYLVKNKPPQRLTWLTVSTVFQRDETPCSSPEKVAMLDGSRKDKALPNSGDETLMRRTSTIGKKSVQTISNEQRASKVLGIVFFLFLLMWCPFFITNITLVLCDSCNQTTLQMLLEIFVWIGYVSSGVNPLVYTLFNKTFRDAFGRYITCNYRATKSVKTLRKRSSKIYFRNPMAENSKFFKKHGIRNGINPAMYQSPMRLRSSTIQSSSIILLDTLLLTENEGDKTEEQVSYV
# T3 sequence (P29274 whole entry): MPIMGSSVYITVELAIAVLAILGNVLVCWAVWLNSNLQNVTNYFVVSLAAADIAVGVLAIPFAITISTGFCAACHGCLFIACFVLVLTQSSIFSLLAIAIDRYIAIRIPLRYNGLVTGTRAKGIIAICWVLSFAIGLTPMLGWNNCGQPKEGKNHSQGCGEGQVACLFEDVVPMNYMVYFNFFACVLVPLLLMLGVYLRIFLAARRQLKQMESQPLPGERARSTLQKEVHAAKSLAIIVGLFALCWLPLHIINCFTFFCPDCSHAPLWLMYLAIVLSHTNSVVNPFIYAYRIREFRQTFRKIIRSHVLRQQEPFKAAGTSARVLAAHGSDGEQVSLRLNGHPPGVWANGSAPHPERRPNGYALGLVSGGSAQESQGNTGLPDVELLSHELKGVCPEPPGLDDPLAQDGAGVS
# Chain of mA2AAR (Q60613 whole entry): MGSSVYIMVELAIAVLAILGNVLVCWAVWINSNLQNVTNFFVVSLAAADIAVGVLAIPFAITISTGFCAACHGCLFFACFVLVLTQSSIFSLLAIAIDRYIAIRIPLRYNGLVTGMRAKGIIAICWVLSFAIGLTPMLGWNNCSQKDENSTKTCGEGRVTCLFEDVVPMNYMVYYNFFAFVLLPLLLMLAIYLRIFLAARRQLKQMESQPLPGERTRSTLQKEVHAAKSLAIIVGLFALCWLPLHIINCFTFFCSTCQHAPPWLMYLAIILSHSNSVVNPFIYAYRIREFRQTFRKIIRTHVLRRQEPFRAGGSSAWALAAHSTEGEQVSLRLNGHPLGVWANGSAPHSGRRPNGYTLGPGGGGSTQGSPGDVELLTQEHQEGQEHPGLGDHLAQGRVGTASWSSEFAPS
# Chain of sigma receptor σ1 (Q99720 whole entry): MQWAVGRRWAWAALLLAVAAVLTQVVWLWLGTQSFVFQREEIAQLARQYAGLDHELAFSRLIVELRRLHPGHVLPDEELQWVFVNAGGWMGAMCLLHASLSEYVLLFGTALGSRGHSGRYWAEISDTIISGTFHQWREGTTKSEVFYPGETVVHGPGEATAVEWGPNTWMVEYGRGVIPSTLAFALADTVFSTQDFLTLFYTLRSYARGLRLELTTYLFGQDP
# Chain of muscarinic receptor M5 (P08912 whole entry): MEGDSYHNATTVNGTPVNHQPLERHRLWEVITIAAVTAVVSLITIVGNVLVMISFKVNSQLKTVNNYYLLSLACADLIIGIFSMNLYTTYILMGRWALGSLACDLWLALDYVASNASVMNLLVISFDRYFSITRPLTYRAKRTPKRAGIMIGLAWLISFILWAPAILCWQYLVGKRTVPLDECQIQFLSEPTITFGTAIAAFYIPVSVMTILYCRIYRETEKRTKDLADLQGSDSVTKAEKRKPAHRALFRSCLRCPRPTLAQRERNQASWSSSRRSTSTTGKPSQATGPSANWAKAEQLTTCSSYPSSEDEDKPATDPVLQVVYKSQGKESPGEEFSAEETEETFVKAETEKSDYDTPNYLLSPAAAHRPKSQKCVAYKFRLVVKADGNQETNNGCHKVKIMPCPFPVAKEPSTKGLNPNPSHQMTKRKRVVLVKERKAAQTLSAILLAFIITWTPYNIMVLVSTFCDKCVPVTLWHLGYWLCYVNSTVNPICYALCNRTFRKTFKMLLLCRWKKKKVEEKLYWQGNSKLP
# Chain of histamine receptor H2 (P25021 whole entry): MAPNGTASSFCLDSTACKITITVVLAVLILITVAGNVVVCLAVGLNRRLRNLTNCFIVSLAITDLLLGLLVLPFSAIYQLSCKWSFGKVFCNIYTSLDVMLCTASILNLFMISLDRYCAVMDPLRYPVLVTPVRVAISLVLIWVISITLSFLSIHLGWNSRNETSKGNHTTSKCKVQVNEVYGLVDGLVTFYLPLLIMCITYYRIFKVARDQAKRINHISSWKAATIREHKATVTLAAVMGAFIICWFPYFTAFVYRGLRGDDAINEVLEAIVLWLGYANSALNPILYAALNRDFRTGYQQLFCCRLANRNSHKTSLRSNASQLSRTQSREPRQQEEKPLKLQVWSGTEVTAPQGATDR
# Chain of adrenergic receptor α2A (P08913 whole entry): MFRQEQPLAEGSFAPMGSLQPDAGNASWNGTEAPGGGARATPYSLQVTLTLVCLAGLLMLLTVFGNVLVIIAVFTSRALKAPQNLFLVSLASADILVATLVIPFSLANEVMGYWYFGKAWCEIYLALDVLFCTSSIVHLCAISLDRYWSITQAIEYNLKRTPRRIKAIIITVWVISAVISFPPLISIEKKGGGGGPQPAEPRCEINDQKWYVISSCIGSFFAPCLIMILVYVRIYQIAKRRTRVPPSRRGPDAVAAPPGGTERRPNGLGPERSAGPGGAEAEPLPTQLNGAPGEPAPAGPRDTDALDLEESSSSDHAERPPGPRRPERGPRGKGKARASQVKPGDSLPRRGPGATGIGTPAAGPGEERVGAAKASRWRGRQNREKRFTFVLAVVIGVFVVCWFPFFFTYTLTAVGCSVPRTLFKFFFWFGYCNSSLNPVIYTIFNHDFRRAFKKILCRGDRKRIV
# Chain of dopamine transporter (DAT) (Q01959 whole entry): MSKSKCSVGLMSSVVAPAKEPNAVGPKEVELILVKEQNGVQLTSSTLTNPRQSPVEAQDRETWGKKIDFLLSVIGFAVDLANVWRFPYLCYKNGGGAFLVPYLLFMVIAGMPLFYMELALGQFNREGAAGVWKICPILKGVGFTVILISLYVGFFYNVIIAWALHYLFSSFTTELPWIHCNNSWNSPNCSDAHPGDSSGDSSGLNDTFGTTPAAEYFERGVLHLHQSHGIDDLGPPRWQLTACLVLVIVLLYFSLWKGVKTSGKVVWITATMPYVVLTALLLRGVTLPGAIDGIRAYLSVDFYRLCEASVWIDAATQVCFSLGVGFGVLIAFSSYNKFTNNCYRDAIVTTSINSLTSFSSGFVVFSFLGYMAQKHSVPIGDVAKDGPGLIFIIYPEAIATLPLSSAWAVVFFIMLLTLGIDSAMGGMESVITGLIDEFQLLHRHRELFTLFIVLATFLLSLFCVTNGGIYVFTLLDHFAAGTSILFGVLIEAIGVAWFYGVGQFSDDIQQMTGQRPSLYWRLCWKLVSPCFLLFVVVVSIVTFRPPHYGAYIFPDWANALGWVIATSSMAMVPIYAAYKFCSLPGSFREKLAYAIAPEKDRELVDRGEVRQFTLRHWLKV
Structure (SMILES),inhibition at 10 µM (hA2AAR),Ki (hA1AR),Ki (serotonin receptor 5HT2C),Activity (counts) (wild-type C57BL/6J mice [4]; 3 mg/kg ip),Ki (serotonin receptor 5HT2B),Ki (mA3AR [6]),Ki (sigma receptor σ2),Ki (sigma receptor σ1),inhibition at 10 µM (hA3AR),Tb (° C.) (wild-type C57BL/6J mice [9]; 3 mg/kg ip),Ki (mA1AR [10]),Ki [11],Activity (counts) (wild-type C57BL/6J mice [4]; 10 mg/kg ip),inhibition at 10 µM (mA2AAR),Tb (° C.) (wild-type C57BL/6J mice [9]; 10 mg/kg ip),Ki (hA3AR),other results
"OC[C@@]12C[C@@H]1[C@@H](n1cnc3c(NC(C4CCC4)C4CCC4)ncnc31)[C@H](O)[C@@H]2O [Compound 24, (1R,2R,3S,4R,5S)-4-(6-((Dicyclobutylmethyl)amino)-9H-purin-9-yl)-1-(hydroxymethyl)bicyclo[3.1.0]hexane-2,3-diol]",34 ± 1%,22.7 ± 3 nM,1.32 µM,18.1 ± 6.8 counts,0.214 µM,918 nM,0.753 µM,1.79 µM,51 ± 6%,36.2 ± 0.4 °C,0.53 nM,,,,,,"Emax at 10 µM (mA3AR [1]): 92 ± 3%; Emax at 10 µM (mA1AR [2]): 97 ± 11%; Ki [3]: 4.08 µM; rat, % free [5]: 17.8 ± 1.2%; mouse, % free [7]: 27.5 ± 1.7%; human, % free [8]: 14.6 ± 1.3%; Binding selectivity for mA1AR (mA1AR [10]; compared to mA3AR): (1730) fold"
"OC[C@@]12C[C@@H]1[C@@H](n1cnc3c(NC(C4CCC4)C4CCC4)nc(Cl)nc31)[C@H](O)[C@@H]2O [Compound 25, (1R,2R,3S,4R,5S)-4-(2-Chloro-6-((dicyclobutylmethyl)amino)-9H-purin-9-yl)-1-(hydroxymethyl)bicyclo[3.1.0]hexane-2,3-diol]",55 ± 5%,8.96 ± 1.02 nM,0.238 µM,,,612 nM,,,25 ± 2%,,2.47 nM,2.93 µM,18.4 ± 3.2 counts,26%,36.6 ± 0.2 °C,,Ki (muscarinic receptor M5): 3 µM; Ki [12]: 4.75 µM
"O[C@H]1[C@H](n2cnc3c(NC(C4CCC4)C4CCC4)ncnc32)[C@H]2C[C@@]2(CCl)[C@H]1O [Compound 26, (1S,2R,3S,4R,5S)-1-(Chloromethyl)-4-(6-((dicyclobutylmethyl)amino)-9H-purin-9-yl)bicyclo[3.1.0]hexane-2,3-diol]",38 ± 3%,32.7 ± 12.4 nM,,14.8 ± 1.7 counts,2.01 µM,934 nM,1.17 µM,1.5 µM,49 ± 4%,35.9 ± 0.5 °C,1.05 nM,2.02 µM,,,,,Ki (adrenergic receptor α2A): 6.8 µM
"O[C@H]1[C@H](n2cnc3c(NC(C4CCC4)C4CCC4)nc(Cl)nc32)[C@H]2C[C@@]2(CCl)[C@H]1O [Compound 27, (1S,2R,3S,4R,5S)-4-(2-Chloro-6-((dicyclobutylmethyl)amino)-9H-purin-9-yl)-1-(chloromethyl)bicyclo[3.1.0]hexane-2,3-diol]",17 ± 24%,120 ± 23 nM,1.75 µM,,,,0.349 µM,,,,11.2 nM,2.89 µM,18.9 ± 10.2 counts,20%,36.5 ± 0.6 °C,3820 ± 1820 nM,Ki (histamine receptor H2): 2.6 µM
"CCOC(=O)[C@@]12C[C@@H]1[C@@H](n1cnc3c(NC(C4CCC4)C4CCC4)nc(Cl)nc31)[C@H](O)[C@@H]2O [Compound 35, Ethyl (1S,2R,3S,4R,5S)-4-(2-Chloro-6-((dicyclobutylmethyl)amino)-9H-purin-9-yl)-2,3-dihydroxybicyclo[3.1.0]hexane-1-carboxylate]",57 ± 12%,73.8 ± 14.2 nM,0.089 µM,,0.097 µM,,2.02 µM,,,,,,,,,1160 ± 300 nM,Ki (muscarinic receptor M3): 5.9 µM
